Where two headings read alike, the source gives them in different places.
Tests used:
[1] = target: T1, human recombinant BACE-1 (hBACE-1) (Homo sapiens, UniProt P56817); assay: BACE-1 FRET assay (PanVera kit); type: biochemical; details: at 50 μM inhibitor concentration; mean ± SD; read-out: hBACE-1 % Inh.
T1 construct: purchased PanVera BACE-1 FRET Assay Kit, bought from Life Technologies Polska Sp. z o.o; host or cells: baculovirus expression

[2] = target: T2, eeAChE (AChE from Electrophorus electricus) (Electrophorus electricus, UniProt O42275); assay: biochemical; details: for inhibition at 10 µM: at 10 μM inhibitor concentration, mean ± SD, read-out: eeAChE % Inh.; for IC50: AChE from electric eel, mean ± SEM, at least three experiments
T2 construct: purchased Sigma-Aldrich
T2 sequence (O42275 24-633): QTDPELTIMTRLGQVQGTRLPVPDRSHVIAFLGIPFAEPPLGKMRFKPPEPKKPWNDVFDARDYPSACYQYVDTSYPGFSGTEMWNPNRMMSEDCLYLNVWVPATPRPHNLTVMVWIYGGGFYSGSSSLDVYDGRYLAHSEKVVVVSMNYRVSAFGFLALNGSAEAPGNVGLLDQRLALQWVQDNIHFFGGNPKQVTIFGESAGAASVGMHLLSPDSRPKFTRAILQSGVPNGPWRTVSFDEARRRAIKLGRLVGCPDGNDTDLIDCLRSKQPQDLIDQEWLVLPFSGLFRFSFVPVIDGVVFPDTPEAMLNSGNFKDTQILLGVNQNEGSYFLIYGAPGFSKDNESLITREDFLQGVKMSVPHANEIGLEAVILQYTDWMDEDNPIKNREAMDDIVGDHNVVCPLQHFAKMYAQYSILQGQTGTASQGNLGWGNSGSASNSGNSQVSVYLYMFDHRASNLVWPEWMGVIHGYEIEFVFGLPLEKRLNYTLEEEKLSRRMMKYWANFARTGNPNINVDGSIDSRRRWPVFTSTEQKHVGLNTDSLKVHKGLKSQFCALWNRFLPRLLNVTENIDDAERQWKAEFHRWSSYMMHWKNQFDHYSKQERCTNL

[3] = target: eqBuChE (BuChE from equine serum) (Equus caballus, UniProt P81908); assay: biochemical; details: for inhibition at 10 µM: at 10 μM inhibitor concentration, mean ± SD, read-out: eqBuChE % Inh.
Sequence of eqBuChE (BuChE from equine serum) (P81908 whole entry): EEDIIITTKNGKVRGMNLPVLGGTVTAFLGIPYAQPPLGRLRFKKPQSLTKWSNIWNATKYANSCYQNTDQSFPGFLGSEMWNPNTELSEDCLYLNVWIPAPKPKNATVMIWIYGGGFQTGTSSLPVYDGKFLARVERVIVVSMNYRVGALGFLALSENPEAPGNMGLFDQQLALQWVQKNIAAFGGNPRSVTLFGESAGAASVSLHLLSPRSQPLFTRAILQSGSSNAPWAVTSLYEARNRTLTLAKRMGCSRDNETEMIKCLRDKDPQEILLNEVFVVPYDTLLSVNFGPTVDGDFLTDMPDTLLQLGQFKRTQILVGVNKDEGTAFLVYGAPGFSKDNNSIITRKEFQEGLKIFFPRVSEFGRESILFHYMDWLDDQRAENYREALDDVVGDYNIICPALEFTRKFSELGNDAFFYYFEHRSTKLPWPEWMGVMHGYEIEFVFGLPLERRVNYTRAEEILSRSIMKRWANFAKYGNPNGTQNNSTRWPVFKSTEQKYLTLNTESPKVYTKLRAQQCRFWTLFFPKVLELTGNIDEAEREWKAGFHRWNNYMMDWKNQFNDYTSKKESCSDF

[4] = target: T3, Aβ1–42 peptide aggregation (Homo sapiens, UniProt P05067); assay: Thioflavin T-based fluorometric assay of Aβ aggregation; type: biochemical; details: read-out: Aβ-Aggr. % Inh.
T3 construct: Recombinant human HFIP-pretreated Aβ1–42 peptide; purchased Merck Millipore, Darmstadt, Germany
T3 sequence (P05067 672-713 limits assumed): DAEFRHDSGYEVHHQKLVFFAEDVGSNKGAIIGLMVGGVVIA

[5] = system: human AChE; design: method as in PMID 25621991; details: cited from earlier work
[6] = system: Aβ aggregation; design: method as in PMID 25621991; details: at 10 μM; cited from earlier work
[7] = system: Aβ toxicity; design: method as in PMID 25621991; details: at 1 μM and 3 μM; cited from earlier work
[8] = at 10 μM inhibitor concentration, 1.5 μM Aβ1–42, mean ± SD

T1 sequence (P56817 46-501): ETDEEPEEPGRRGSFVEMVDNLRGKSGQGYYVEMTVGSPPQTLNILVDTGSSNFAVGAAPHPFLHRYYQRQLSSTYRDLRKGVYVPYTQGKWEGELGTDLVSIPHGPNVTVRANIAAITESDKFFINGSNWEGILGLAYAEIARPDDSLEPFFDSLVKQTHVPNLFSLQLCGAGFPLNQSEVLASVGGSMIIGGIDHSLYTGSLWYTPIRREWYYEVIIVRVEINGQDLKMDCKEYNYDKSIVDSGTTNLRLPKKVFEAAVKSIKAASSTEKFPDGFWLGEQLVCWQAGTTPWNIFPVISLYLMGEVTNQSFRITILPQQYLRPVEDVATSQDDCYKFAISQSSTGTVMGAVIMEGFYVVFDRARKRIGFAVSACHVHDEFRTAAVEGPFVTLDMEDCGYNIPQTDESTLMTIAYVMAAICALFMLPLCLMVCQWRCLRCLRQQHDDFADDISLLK

SMILES	inhibition at 50 µM [1] [%]	inhibition at 10 µM [2] [%]	IC50 ([3]; BuChE from horse serum, mean ± SEM, at least three experiments) [nM]	inhibition at 10 µM [4, 8] [%]	IC50 [2] [nM]	inhibition at 10 µM [3] [%]	inhibition at 10 µM [4] [%]	IC50 [5] [nM]	anti-Aβ aggregation activity [6] [%]	neuroprotective effect against Aβ toxicity [7]
COc1ccccc1CNCC(O)CN1C(=O)c2ccccc2C1=O (centres unmarked) [Compound 5, 2-(2-Hydroxy-3-((2-methoxybenzyl)amino)propyl)isoindoline-1,3-dione]	39.2	< 10	7860 ± 290	19.9						
COc1ccccc1CNCC(O)CCCN1C(=O)c2ccccc2C1=O (centres unmarked) [Compound 13, 2-(4-Hydroxy-5-((2-methoxybenzyl)amino)pentyl)isoindoline-1,3-dione]	37.1			< 10	11100 ± 490	26.2				
COc1ccc(CNCC(O)CN2C(=O)c3ccccc3C2=O)cc1 (centres unmarked) [Compound 7, 2-(2-Hydroxy-3-((4-methoxybenzyl)amino)propyl)isoindoline-1,3-dione]	35.1	< 10		< 10		19.1				
O=C1c2ccccc2C(=O)N1CC(O)CNCc1ccccc1F (centres unmarked) [Compound 2, 2-(3-((2-Fluorobenzyl)amino)-2-hydroxypropyl)isoindoline-1,3-dione]	39.6	28.1		21.1		19.5				
O=C1c2ccccc2C(=O)N1CC(O)CNCc1ccccc1C(F)(F)F (centres unmarked) [Compound 3, 2-(2-Hydroxy-3-((2-(trifluoromethyl)benzyl)amino)propyl)isoindoline-1,3-dione]	41.8	11.8		< 10		< 10				
COc1ccccc1CNCC(O)CCN1C(=O)c2ccccc2C1=O (centres unmarked) [Compound 10, 2-(3-Hydroxy-4-((2-methoxybenzyl)amino)butyl)isoindoline-1,3-dione]	24.4	32.7		< 10		17.8				
COc1cc2c(cc1OC)C(=O)C(CC1CCN(Cc3ccccc3)CC1)C2 (centres unmarked) [Donepezil, reference compound]							13.8			
O=C1c2ccccc2C(=O)N1CC(O)CNCc1ccccc1 (centres unmarked) [Compound 1, 2-(3-(Benzylamino)-2-hydroxypropyl)isoindoline-1,3-dione]	37.3	11.5		< 10		14.1				
Oc1ccc(/C=C/c2cc(O)cc(O)c2)cc1 [Resveratrol, reference compound]				78.5						
O=C1c2ccccc2C(=O)N1CCCC(O)CNCc1ccccc1 (centres unmarked) [Compound 12, 2-(5-(Benzylamino)-4-hydroxypentyl)isoindoline-1,3-dione]	43.7			24.9	3320 ± 150	14.1				
O=C1c2ccccc2C(=O)N1CCC(O)CNCc1ccccc1 (centres unmarked) [Compound 9, 2-(4-(Benzylamino)-3-hydroxybutyl)isoindoline-1,3-dione]	< 10	< 10		< 10		< 10				
COc1ccc(CNCC(O)CCN2C(=O)c3ccccc3C2=O)cc1 (centres unmarked) [Compound 11, 2-(3-Hydroxy-4-((4-methoxybenzyl)amino)butyl)isoindoline-1,3-dione]	34.8	< 10		< 10		< 10				
O=C1c2ccccc2C(=O)N1CC(O)CNCc1ccc(Cl)cc1Cl (centres unmarked) [Compound 8, 2-(3-((2,4-Dichlorobenzyl)amino)-2-hydroxypropyl)isoindoline-1,3-dione]	37.2	< 10		< 10		21.7				
O=C1c2ccccc2C(=O)N1CCCCCNCc1ccc(F)cc1 [Compound III, 2-(5-(4-flurobenzylamino)pentyl)isoindoline-1,3-dione]								268	66	neuroprotective effect
Cc1ccc(CNCC(O)CN2C(=O)c3ccccc3C2=O)cc1 (centres unmarked) [Compound 6, 2-(2-Hydroxy-3-((4-methylbenzyl)amino)propyl)isoindoline-1,3-dione]	45	< 10		< 10		11.6				
O=C1c2ccccc2C(=O)N1CC(O)CNCc1cccc(Cl)c1 (centres unmarked) [Compound 4, 2-(3-((3-Chlorobenzyl)amino)-2-hydroxypropyl)isoindoline-1,3-dione]	34.1	< 10		< 10		24.1				
O=C1c2ccccc2C(=O)N1CCCCC(O)CNCc1ccccc1 (centres unmarked) [Compound 14, 2-(6-(Benzylamino)-5-hydroxyhexyl)isoindoline-1,3-dione]	42.1			< 10	2130 ± 70	36				
COc1ccccc1CNCC(O)CCCCN1C(=O)c2ccccc2C1=O (centres unmarked) [Compound 15, 2-(5-Hydroxy-6-((2-methoxybenzyl)amino)hexyl)isoindoline-1,3-dione]	15.7			< 10	1950 ± 60	36				

From article PMC6017481, “Design, Synthesis, and Biological Evaluation of 2-(Benzylamino-2-Hydroxyalkyl)Isoindoline-1,3-Diones Derivatives as Potential Disease-Modifying Multifunctional Anti-Alzheimer Agents” (Molecules : A Journal of Synthetic Chemistry and Natural …, 2018)
